This is an account of results in BindingDB's records for doi:10.1111/j.1747-0285.2008.00638.x (Mcgill University/Royal Victoria Hospital, 2008).

pIC50: −log10 of the molar value.

For the assay, the target named is Epidermal growth factor receptor (Homo sapiens, UniProt P00533). The assay is described as follows: Kinase Enzyme Assay. The note with it: 37 °C. The source says: EGFR kinase assay was perform using Nunc MaxiSorp purchased from Nalge Nunc Interantional.
Chain of Epidermal growth factor receptor (P00533 whole entry): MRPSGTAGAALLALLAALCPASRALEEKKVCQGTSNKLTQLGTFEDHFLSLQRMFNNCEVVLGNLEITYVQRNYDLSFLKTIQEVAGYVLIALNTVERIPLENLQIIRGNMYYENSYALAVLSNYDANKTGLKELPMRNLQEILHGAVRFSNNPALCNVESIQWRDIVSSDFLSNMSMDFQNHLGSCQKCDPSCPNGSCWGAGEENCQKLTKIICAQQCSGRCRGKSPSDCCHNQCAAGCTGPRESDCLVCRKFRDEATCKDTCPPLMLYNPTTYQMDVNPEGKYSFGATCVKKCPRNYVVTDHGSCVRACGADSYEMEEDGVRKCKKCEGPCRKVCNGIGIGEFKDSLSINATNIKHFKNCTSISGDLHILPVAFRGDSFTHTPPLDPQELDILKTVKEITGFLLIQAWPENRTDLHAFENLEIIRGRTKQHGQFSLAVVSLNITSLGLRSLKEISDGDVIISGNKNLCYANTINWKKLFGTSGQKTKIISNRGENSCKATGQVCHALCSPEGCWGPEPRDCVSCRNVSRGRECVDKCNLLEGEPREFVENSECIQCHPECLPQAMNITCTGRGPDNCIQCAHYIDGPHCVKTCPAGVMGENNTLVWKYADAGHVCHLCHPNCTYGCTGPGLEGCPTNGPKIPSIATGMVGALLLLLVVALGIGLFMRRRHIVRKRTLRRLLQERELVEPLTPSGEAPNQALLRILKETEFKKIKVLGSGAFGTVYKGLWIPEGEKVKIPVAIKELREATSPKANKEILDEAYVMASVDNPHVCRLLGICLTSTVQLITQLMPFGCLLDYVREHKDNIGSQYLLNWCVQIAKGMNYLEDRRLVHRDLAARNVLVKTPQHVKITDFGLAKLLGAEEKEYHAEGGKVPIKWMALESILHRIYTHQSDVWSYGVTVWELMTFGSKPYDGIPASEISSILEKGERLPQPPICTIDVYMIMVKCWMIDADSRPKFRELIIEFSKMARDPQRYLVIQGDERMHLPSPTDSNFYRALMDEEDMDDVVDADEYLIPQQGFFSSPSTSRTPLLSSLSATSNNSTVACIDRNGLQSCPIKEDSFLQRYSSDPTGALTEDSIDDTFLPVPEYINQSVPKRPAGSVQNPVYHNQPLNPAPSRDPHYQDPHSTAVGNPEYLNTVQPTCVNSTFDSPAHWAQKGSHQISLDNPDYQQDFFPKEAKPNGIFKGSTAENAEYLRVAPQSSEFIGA
By pIC50 is commonly meant the negative decadic logarithm of the IC50, by convention in mol/L. A higher pIC50 goes with a small IC50. With `Cc1cccc(Nc2ncnc3ccc(/N=N/N(C)CCN(CCN4CCOCC4)CCN(C)/N=N/c4ccc5ncnc(Nc6cccc(C)c6)c5c4)cc23)c1` [Bis-quinazolinotriazene, 5a], the negative-log IC50 (pIC50) was 6.02.

Turning to `CN(CCN(CCN1CCOCC1)CCN(C)/N=N/c1ccc2ncnc(Nc3cccc(Br)c3)c2c1)/N=N/c1ccc2ncnc(Nc3cccc(Br)c3)c2c1` [Bis-quinazolinotriazene, 5b], the pIC50 is 6.92.

In turn, `CN(CCN(CCN1CCOCC1)CCN(C)/N=N/c1ccc2ncnc(Nc3cccc(Cl)c3)c2c1)/N=N/c1ccc2ncnc(Nc3cccc(Cl)c3)c2c1` [Bis-quinazolinotriazene, 5c] showed a negative-log IC50 (pIC50) of 6.82.
